From patent US10509036B2, “Methods of selecting and isolating cancer stem cells” (The Regents of the University of California, priority 2014, dated 2019)

Tested on: neuroblastoma cells (low NBDG and high NBDG)
Experiment: MTS assay (CellTiter 96 AQueous cell proliferation assay), low NBDG versus high NBDG neuroblastoma cells
Type: cell-based, human

SMILES	resistance of low NBDG cells to the chemotherapy drug compared with high NBDG cells (MTS assay)
CC[C@]1(O)C[C@H]2CN(CCc3c([nH]c4ccccc34)[C@@](C(=O)OC)(c3cc4c(cc3OC)N(C=O)[C@H]3[C@@](O)(C(=O)OC)[C@H](OC(C)=O)[C@]5(CC)C=CCN6CC[C@]43[C@@H]65)C2)C1 [vincristine]	more resistant
COc1cccc2c1C(=O)c1c(O)c3c(c(O)c1C2=O)C[C@@](O)(C(=O)CO)C[C@@H]3O[C@H]1C[C@H](N)[C@H](O)[C@H](C)O1 [doxorubicin]	more resistant
